Data reported in patent publication US20160206631A1, “OXYSTEROLS THAT ACTIVATE LIVER X RECEPTOR SIGNALING AND INHIBIT HEDGEHOG SIGNALING” (THE REGENTS OF THE UNIVERSITY OF CALIFORNIA, priority 2010, published 2016).

What was measured:
[1] = test system: L3.6p1 human pancreatic cancer cells; assay: Clonogenic growth of L3.6p1 pancreatic cancer cells in methylcellulose; assay type: cell-based; conditions: 72 hours treatment, colonies counted after 10 days
Experimental: (§1) Following treatment cells were harvested by washing cells twice with phosphate buffered saline (PBS) followed by enzymatically detaching with trypsin/EDTA. Cells were collected then washed twice with PBS. Cells were counted then resuspended in 500 uL of media. The volume of cells required for 2,000 cells from the control group was removed from each group then mixed with methylcellulose (1.2%) containing 30% fetal bovine serum, 1% bovine serum albumin, 10^-4 M 2-mercaptoethanol, and 2 mM L-glutamine. Cells were plated in low-attachment 6 well plates (1 ml/well), each group being plated in triplicate. Following 10 days of incubation, tumor cell colonies consisting of >40 cells were counted using an inverted microscope. Results are presented as the percentage of colonies from each treatment group compared to the control group (Table 2).

LXR [2] = assay: ABCA1 (LXR target gene) expression by Q-RT-PCR in M2-10B4 bone marrow stromal cells; conditions: for fold induction at 2 µM: M210B4, 48 h, read-out: ABCA1 gene expression, Fold Induction ± SD; for LXR signaling activation: bone marrow stromal cells
Experimental: This was measured by the ability of these molecules to induce the expression of LXR-target genes, including ABCA1, in M2-10B4 bone marrow stromal cells (MSC) after 48 hours of treatment (Table 1).

REH human ALL cells = assay: Clonogenic growth of REH ALL cells; assay type: cell-based
Experimental: as §1
A similar experiment to that shown above for pancreatic cancer cells was performed using the human ALL cells, REH (Table 3).

[3] = test system: human NCI-H929 multiple myeloma cell line; assay: Clonogenic growth of NCI-H929 multiple myeloma cells; assay type: cell-based; conditions: 1 μM, 96 hours, colonies after 10 days (FIG. 6)
Experimental: NCI-11929 multiple myeloma cells were treated for 96 hours with control vehicle or 1 μM of each compound as shown. Next, drugs were removed and cells were plated in methylcellulose. Clonogenic growth of colonies determined after 10 days. Data are reported as percentage of colony number normalized to control group.
In order to examine the effect of LXR activation on the clonogenic growth of multiple myeloma cells, the human NCI-H929 multiple myeloma cell line was used.

[4] = test system: human primary multiple myeloma cells derived from patients; assay: Clonogenic growth of primary multiple myeloma cells from patients in methylcellulose; assay type: cell-based; conditions: 1 μM, 96 hours, CD34+ and CD138+ depleted bone marrow mononuclear cells
[5] = test system: NCI-H929 multiple myeloma cancer stem cells; assay: Percentage of cancer stem cells (CD138 negative, ALDH positive) in NCI-H929 cultures by flow cytometry; assay type: cell-based, human; conditions: 1 μM, 96 hours (FIGS. 7, 8)
Experimental: NCI-H929 multiple myeloma cells were treated for 96 hours with control vehicle or 1 μM of each compound as shown. Next, percentage of CD138negative cells in the same number of starting cells from each group was determined by flow cytometry.
NCI-H929 multiple myeloma cells were treated for 96 hours with control vehicle or 1 μM of each compound as shown. Next, percentage of ALDH+ cells in the same number of starting cells from each group was determined by flow cytometry.

LXR [6] = assay: LXR target gene expression by Q-RT-PCR in Saos-2 osteosarcoma cells; assay type: cell-based, human; conditions: Saos-2 cells (FIG. 2, 72 hours for TO)
Description: Data from a representative experiment are reported as the Data from a representative experiment are reported as the mean of triplicate determinations±SD relative to the expression level of LXRα (p<0.001 for control vs. both concentrations of TO for ABCA1 and SREBP1c mRNA).
Culturing the cells in varying serum (FBS) concentrations from 1% to 10% had no effect on LXRs or LXR target gene expression levels at baseline.

Hedgehog signaling = assay: CAPAN-1 conditioned-medium-induced Hh target gene expression (Ptch1, HHIP, Gli1) in C3H10T1/2 cells; assay type: cell-based; conditions: C3H10T1/2 cells treated with CAPAN-1 CM
Experimental: Next, cells were treated with DMEM containing 5% […] or CAPAN-1 CM in the presence or absence of TO, Oxy16, or Cyc. After 48 hours, RNA was extracted and analyzed by Q-RT-PCR for the expression of Hh target genes Ptch1, HHIP, and Gli1 and normalized to GAPDH expression.
As noted above, Hh signaling appears to play an important role in the initiation and progression of pancreatic cancer (26), and the inhibition of HE signaling using small molecule antagonists inhibits pancreatic cancer cells from growing in vitro and in vivo (50). […] Subsequently, Hh signaling in stromal cells provides a permissive milieu for tumor cells to grow. […] In this Example, we examine this possibility using an in vitro model system in which Hh signaling is induced in C3H10T1/2 embryonic fibroblasts by conditioned-medium (CM) from CAPAN-1 human pancreatic cancer cells.
In order to assess the functional activity of Hh proteins produced by CAPAN-1 cells, we examined the ability of CM to induce Hh target gene expression in C3H10T1/2 embryonic fibroblasts.

[7] = test system: U2OS human osteosarcoma cells; assay: Anchorage-independent clonogenic growth of U2OS cells; assay type: cell-based; conditions: 1 μM, 72 hours, colonies after 10 days (FIG. 4)
Experimental: (§2) Next, cells were harvested and examined for clonogenic growth in non-adherent plates after 10 days of culturing. Data from a representative of two separate experiments are reported as the relative number of colonies formed by cells treated with LXR ligands relative to cells treated with control vehicle (% of control).
(§3) We examined whether LXR activation inhibits the clonogenic growth of human osteosarcoma cells using an anchorage-independent cell growth assay. Saos-2 and U2OS cells were seeded in standard tissue culture plates and treated for 72 hours with control vehicle or 1 μM of TO, 22R, or Oxy16. Following treatments with LXR ligands, the drugs were removed and the cells harvested and plated in methylcellulose media in non-adherent plates (Costar) and the cell colonies formed after 10 days were counted.

[8] = test system: Saos-2 human osteosarcoma cells; assay: Anchorage-independent clonogenic growth of Saos-2 cells; assay type: cell-based; conditions: Saos-2; 1 μM, 72 hours, colonies after 10 days (FIG. 4)
Experimental: as §2, §3

[9] = test system: human pancreatic cancer cells; assay: Clonogenic growth of human pancreatic cancer cells in vitro; assay type: cell-based
LXR [10] = assay: LXR target gene expression in human pancreatic cancer cells

Compound: CC(C)CCC[C@](C)(O)C1CCC2C3CC=C4CC(=O)CC[C@]4(C)C3CC[C@@]21C (stereo partly drawn) [Oxy30, (10R,13S)-17-((S)-2-Hydroxy-6-methylheptan-2-yl)-10,13-dimethyl-4,7,8,9,10,11,12, 13,14,15,16,17-dodecahydro-1H-cyclopenta[a]phenanthren-3(2H)-one]
- Normalized Colony # (% of control) ([1]; 5 μM): 39 % of control
- Raw Colony # ([1]; 5 μM): 96
- Normalized Colony # (% of control) ([1]; 10 μM): 41 % of control
- Raw Colony # ([1]; 10 μM): 100
- fold induction at 2 µM (LXR [2]): 2.8 ± 0.8
- LXR signaling activation (LXR [2]): Activate LXR Signaling

Compound: C[C@]12CC[C@H]3[C@@H](CC=C4C[C@@H](O)CC[C@@]43C)[C@@H]1CC[C@@H]2[C@@](C)(O)CCc1ccc(F)cc1 [Oxy45, (3S,8S,9S,10R,13S,14S,17S)-17-((S)-4-(4-Fluorophenyl)-2-hydroxybutan-2-yl)-10,13-dimethyl-2,3,4,7,8,9,10,11,12,13,14,15,16,17-tetradecahydro-1H-cyclopenta-M-phenanthren-3-ol]
- Normalized Colony # (% of control) (REH human ALL cells; 0.1 μM): 43 % of control
- Raw Colony # (REH human ALL cells; 0.1 μM): 40
- Normalized Colony # (% of control) (REH human ALL cells; 0.5 μM): 0.5 % of control
- Raw Colony # (REH human ALL cells; 0.5 μM): 0.5
- clonogenic growth [3]: inhibited clonogenic growth
- fold induction at 2 µM (LXR [2]): 3.5 ± 0.5
- LXR signaling activation (LXR [2]): Activate LXR Signaling
- colony formation (% of control) ([4]; Specimen # 1): 46 % of control
- colony formation (% of control) ([4]; Specimen # 2): 25 % of control
- percentage of cancer stem cells (CD138 negative and ALDH positive cells) [5]: significantly reduced

Compound: CC(C)CCC[C@](C)(O)[C@H]1CC[C@H]2[C@@H]3CC=C4C[C@@H](O)CC[C@]4(C)[C@H]3CC[C@@]21C [Oxy 20S, 20(S)-hydroxycholesterol, reference compound]
- expression of LXR target genes ABCA1 and SREBP1c (LXR [6]): significant expression

Compound: C[C@]12CC[C@H]3[C@@H](CC=C4C[C@@H](O)CC[C@@]43C)[C@@H]1CC[C@@H]2[C@@](C)(O)CCc1ccc(Cl)cc1 [Oxy47, (3S,8S,9S,10R,13S,14S,17S)-17-((S)-4-(4-Chlorophenyl)-2-hydroxybutan-2-yl)-10,13-dimethyl-2,3,4,7,8,9,10,11,12,13,14,15,16,17-tetradecahydro-1H-cyclopenta-[a]-phenanthren-3-ol]
- fold induction at 2 µM (LXR [2]): 1.8 ± 0.5
- LXR signaling activation (LXR [2]): Activate LXR Signaling

Compound: C[C@]12CC[C@H]3[C@@H](CC=C4C[C@@H](O)CC[C@@]43C)[C@@H]1CC[C@@H]2[C@@](C)(O)CCCc1ccccc1 [Oxy22]
- fold induction at 2 µM (LXR [2]): 2.2 ± 0.4
- LXR signaling activation (LXR [2]): Activate LXR Signaling

Compound: CC(C)CCC[C@](C)(O)C1CCC2C3CC=C4C=CCC[C@]4(C)C3CC[C@@]21C (stereo partly drawn) [Oxy37, (2S)-2-((10R,13S)-10,13-Dimethyl-2,7,8,9,10,11,12,13,14,15,16,17-dodecahydro-1H-cyclopenta[a]phenanthren-17-yl)-6-methylheptan-2-ol]
- fold induction at 2 µM (LXR [2]): 2 ± 0.1
- LXR signaling activation (LXR [2]): Activate LXR Signaling

Compound: C[C@]12CC[C@H]3[C@@H](CC=C4C[C@@H](O)CC[C@@]43C)[C@@H]1CC[C@@H]2[C@@](C)(O)CCc1cccnc1 [Oxy43, (3S,8S,9S,10R,13S,14S,17S)-17-((S)-2-Hydroxy-4-(yridine-3-yl)butan-2-yl)-10,13-dimethyl-2,3,4,7,8,940,11,12,13,14,15,16,17-tetradecahydro-1H-cyclopenta-[a]-phenanthren-3-ol]
- fold induction at 2 µM (LXR [2]): 2.5 ± 0.8
- LXR signaling activation (LXR [2]): Activate LXR Signaling

Compound: CC(C)CC[C@H](O)[C@@H](C)[C@H]1CC[C@H]2[C@@H]3CC=C4C[C@@H](O)CC[C@]4(C)[C@H]3CC[C@]12C [22(S)-hydroxycholesterol]
- CM-induced Hh signaling (Hedgehog signaling): did not have similar inhibitory effects

Compound: CC(C)CC[C@@H](O)[C@@H](C)[C@H]1CC[C@H]2[C@@H]3CC=C4C[C@@H](O)CC[C@]4(C)[C@H]3CC[C@]12C [Oxy 22R, 22R-hydroxycholesterol, reference compound]
- clonogenic growth [7]: significant inhibition
- clonogenic growth [8]: significant inhibition
- Normalized Colony # (% of control) (REH human ALL cells; 0.1 μM): 36 % of control
- Raw Colony # (REH human ALL cells; 0.1 μM): 33
- Normalized Colony # (% of control) (REH human ALL cells; 0.5 μM): 2 % of control
- Raw Colony # (REH human ALL cells; 0.5 μM): 2
- expression of LXR target genes ABCA1 and SREBP1c (LXR [6]): significant expression
- Normalized Colony # (% of control) ([1]; 5 μM): 63 % of control
- Raw Colony # ([1]; 5 μM): 153
- Normalized Colony # (% of control) ([1]; 10 μM): 59 % of control
- Raw Colony # ([1]; 10 μM): 142
- clonogenic growth [9]: significantly inhibit
- expression of LXR target genes (LXR [10]): induce the expression of LXR target genes
- CM-induced Hh signaling (Hedgehog signaling): inhibited

Compound: CC(C)CCC[C@](C)(O)C1CCC2C3CCC4=CC(=O)CC[C@]4(C)C3CC[C@@]21C (stereo partly drawn) [Oxy31, (10R,13S)-17-((S)-2-Hydroxy-6-methylheptan-2-yl)-10,13-dimethyl-6,7,8,9,10,11,12, 13,14,15,16,17-dodecahydro-1H-cyclopenta[a]phenanthren-3(2H)-one]
- fold induction at 2 µM (LXR [2]): 2 ± 0.3
- LXR signaling activation (LXR [2]): Activate LXR Signaling

Compound: CC(C)CCC[C@](C)(O)C1CCC2C3CC=C4C[C@H](O)CC[C@]4(C)C3CC[C@@]21C (stereo partly drawn) [Oxy35, (3R,10R,13S)-17-((S)-2-Hydroxy-6-methylheptan-2-yl)-10,13-dimethyl-2,3,4,7,8,9, 10,11,12,13,14,15,16,17-tetradecahydro-1H-cyclopenta[a]phenanthren-3-ol]
- fold induction at 2 µM (LXR [2]): 4 ± 1.2
- LXR signaling activation (LXR [2]): Activate LXR Signaling
